Molecular target: T1, Recombinant human renin (Homo sapiens, UniProt P00797)
T1 construct: isolate the active form (residues 67-406); made in house; host or cells: FreeStyle 293-F cells (transient expression of pcDNA3.1(+)/hREN)
T1 sequence (P00797 67-406): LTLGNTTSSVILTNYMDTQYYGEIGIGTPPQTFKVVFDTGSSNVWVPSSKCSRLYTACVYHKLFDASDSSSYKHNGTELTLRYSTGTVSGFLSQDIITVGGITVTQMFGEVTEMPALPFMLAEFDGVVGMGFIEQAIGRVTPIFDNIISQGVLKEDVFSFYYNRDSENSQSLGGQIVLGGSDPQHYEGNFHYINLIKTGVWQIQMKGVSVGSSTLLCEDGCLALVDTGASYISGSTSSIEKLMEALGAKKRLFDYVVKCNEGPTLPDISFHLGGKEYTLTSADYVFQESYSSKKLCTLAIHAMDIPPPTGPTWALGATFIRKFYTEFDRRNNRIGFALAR
Assay: In vitro enzymatic activity assay of Renin inhibitors (fluorescence, QXL520/HiLyteFluo488 peptide substrate)
Format: biochemical
Conditions: not given
Source text: Test compounds in varying concentrations may be reacted with recombinant human renin in the presence of substrate, e.g., QXL520-γ-Abu-Ile-His-Pro-Phe-His-Leu-Val-Ile-His-Thr-Lys (HiLyteFluo488)-Arg-OH (Anaspec, San Jose, Calif.). The reaction can be followed kinetically using fluorescence (excitation λ=485 nm; emission λ=538 nm). Inhibition constants (IC50) may be calculated by non-linear curve fitting of the compound concentrations and fluorescence intensities to the standard IC50 equation.
Solutions of test compounds in varying concentrations (<2 mM final concentration) are prepared in dimethyl sulfoxide (DMSO) and then diluted into assay buffer comprising 50 mM Hepes, 1 mM EDTA, 1 mM DTT, 0.1 mg/ml BSA, 0.01% Brij35, pH 7.4. Alternatively, the assay can be performed with a high BSA concentration, wherein the buffer contains an additional 2% BSA.
Recombinant human renin (3 nM final concentration) is added to the dilutions and pre-incubated with the compounds for 10 minutes at 37° C. As described in Examples A-C above, human Renin can be obtained by expressing preprorenin (residue 1-406) in mammalian cells, treating the prorenin (residues 24-406) contained in the culture supernatant with trypsin, and isolate the active form (residues 67-406). After pre-incubation, the reaction is initiated with 1 μM of substrate QXL520-γ-Abu-Ile-His-Pro-Phe-His-Leu-Val-Ile-His-Thr-Lys (HiLyteFluo488)-Arg-OH (Anaspec, San Jose, Calif.). The final DMSO in the assay is 5%. The total volume of the reaction mixture is 20 μL, which can be placed on Greiner 384-well small volume plates.
Renin activity may be determined via fluorescence (excitation λ=485 nm; emission λ=538 nm), e.g., on a Molecular Devices SPECTROmax GEMINI XPS. The fluorescence intensity is determined upon the addition of substrate and determined again after incubation at 37° C. for one hour. The fluorescence intensity of a blank (no inhibition) using vehicle alone is also determined. Renin activity is linearly proportional to the change in fluorescence observed (final−initial).
The percent inhibition of Renin at a given compound concentration is defined as:
100%×[1−(Fcompound/Fblank)]
where Fcompound is the observed fluorescence at a given concentration of test compound and Fblank is the observed fluorescence in the presence of vehicle alone.
The pIC50 value (negative log of the molar concentration of the compound that produces 50% inhibition) of a test compound is calculated by non-linear least squares curve fitting of the equation: […]
to percent inhibition versus compound concentration. The 50% inhibitory concentration (IC50) of a test compound is calculated by raising 10 to the negative pIC50 (10^−pIC50).

Row | Structure (SMILES) | IC50 [µM]
1 | CC(=O)NCCc1ccccc1Oc1ccccc1CCC(=O)N1CCNC[C@H]1Cc1ccc(OC(=O)N2CCOCC2)cc1 [Example 80, (R)-4-((1-(3-(2-(2-(2-acetamidoethyl)phenoxy)phenyl)propanoyl)piperazin-2-yl)methyl)phenyl morpholine-4-carboxylate] | 0.5 to 5
2 | O=C(Oc1ccc(C[C@@H]2CNCCN2C(=O)CCc2ccccc2Oc2ccccc2)cc1)N1CCOCC1 [Example 73, (R)-4-((1-(3-(2-phenoxyphenyl)propanoyl)piperazin-2-yl)methyl)-phenyl morpholine-4-carboxylate] | 0.5 to 5

Same assay, conditions: recombinant human renin 3 nM, 1 μM substrate, 37° C., pH 7.4; values given as ranges; read-out: IC50 of Exemplified Compounds Against Renin

Row | Structure (SMILES) | IC50 [µM]
3 | O=C(COc1ccccc1Br)N1CCNC[C@H]1Cc1ccccc1 [Example 4, (R)-1-(2-Benzylpiperazin-1-yl)-2-(2-bromophenoxy)ethanone] | 5 to 50
4 | CC(=O)c1cccc(Oc2ccccc2CCC(=O)N2CCNC[C@H]2Cc2ccccc2)c1 [Example 36, (R)-3-(2-(3-Acetylphenoxy)phenyl)-1-(2-benzylpiperazin-1-yl)propan-1-one] | 0.5 to 5
5 | COc1ccccc1-c1ccccc1CC(=O)N1CCNC[C@H]1Cc1ccccc1 [Example 9, 1-((R)-2-Benzylpiperazin-1-yl)-2-(2′-methoxybiphenyl-2-yl)ethanone] | 5 to 50
6 | N#Cc1ccccc1Oc1ccccc1CCC(=O)N1CCNC[C@H]1Cc1ccccc1 [Example 30, (R)-2-(2-(3-(2-benzylpiperazin-1-yl)-3-oxopropyl)phenoxy)benzonitrile] | 0.5 to 5
7 | O=C(CC(c1ccccc1)c1ccccc1)N1CCNC[C@H]1Cc1ccccc1 [Example 2, (R)-1-(2-Benzylpiperazin-1-yl)-3,3-diphenylpropan-1-one] | 0.5 to 5
8 | CC(=O)Nc1cccc(Oc2ccccc2CCC(=O)N2CCNC[C@H]2Cc2ccccc2)c1 [Example 33, (R)—N-(3-(2-(3-(2-Benzylpiperazin-1-yl)-3-oxopropyl)phenoxy)phenyl)acetamide] | 0.5 to 5
9 | CC(=O)NCc1cc(C(F)(F)F)ccc1Oc1cc(C)ccc1CCC(=O)N1CCNC[C@H]1Cc1ccccc1 [Example 45, (R)—N-(2-(2-(3-(2-benzylpiperazin-1-yl)-3-oxopropyl)-5-methylphenoxy)-5-(trifluoromethyl)benzyl)acetamide] | 0.5 to 5
10 | O=C(COc1cccc2ccccc12)N1CCNC[C@H]1Cc1ccccc1 [Example 15, (R)-1-(2-Benzylpiperazin-1-yl)-2-(naphthalen-1-yloxy)ethanone] | 5 to 50
11 | NC(=O)c1cccc(Oc2ccccc2CCC(=O)N2CCNC[C@H]2Cc2ccccc2)c1 [Example 37, (R)-3-(2-(3-(2-benzylpiperazin-1-yl)-3-oxopropyl)phenoxy)benzamide] | 0.5 to 5
12 | O=C(CCN(c1ccccc1)c1ccccc1)N1CCNC[C@H]1Cc1ccccc1 [Example 58, (R)-1-(2-benzylpiperazin-1-yl)-3-(diphenylamino)propan-1-one] | 5 to 50
13 | O=C(CCC(=O)N1CCNC[C@H]1Cc1ccccc1)N(c1ccccc1)c1ccccc1 [Example 60, (R)-4-(2-benzylpiperazin-1-yl)-4-oxo-N,N-diphenylbutanamide] | 0.5 to 5

Further lines, results first:

Row | IC50 [µM] | Structure (SMILES)
14 | < 0.5 | CN(C)c1cccc(Oc2ccccc2CCC(=O)N2CCNC[C@H]2Cc2ccccc2)c1 [Example 31, (R)-1-(2-Benzylpiperazin-1-yl)-3-(2-(3-(dimethylamino)phenoxy)phenyl)propan-1-one]
15 | 0.5 to 5 | O=C(CCc1nc(-c2ccccc2)c(-c2ccccc2)o1)N1CCNC[C@H]1Cc1ccccc1 [Example 63, (R)-1-(2-benzylpiperazin-1-yl)-3-(4,5-diphenyloxazol-2-yl)propan-1-one]
16 | 0.5 to 5 | CCNC(=O)c1cccc(Oc2ccccc2CCC(=O)N2CCNC[C@H]2Cc2ccccc2)c1 [Example 34, (R)-3-(2-(3-(2-Benzylpiperazin-1-yl)-3-oxopropyl)phenoxy)-N-ethylbenzamide]
17 | < 0.5 | O=C(CCc1ccccc1Cc1ccccc1)N1CCNC[C@H]1Cc1ccccc1 [Example 53, (R)-3-(2-benzylphenyl)-1-(2-benzylpiperazin-1-yl)propan-1-one]
18 | < 0.5 | CC(=O)NCCc1ccccc1Cc1ccccc1CCC(=O)N1CCNC[C@H]1Cc1ccc(C(=O)NS(C)(=O)=O)cc1 [Example 93, (R)-4-((1-(3-(2-(2-(2-acetamidoethyl)benzyl)phenyl)propanoyl)piperazin-2-yl)methyl)-N-(methylsulfonyl)benzamide]
19 | < 0.5 | CC(=O)NCc1c(C)cc(C)nc1Oc1ccccc1CCC(=O)N1CCNC[C@H]1Cc1ccccc1 [Example 39, (R)—N-((2-(2-(3-(2-benzylpiperazin-1-yl)-3-oxopropyl)phenoxy)-4,6-dimethylpyridin-3-yl)methyl)acetamide]
20 | < 0.5 | NC(=O)CCc1ccccc1Oc1ccccc1CCC(=O)N1CCNC[C@H]1Cc1ccccc1 [Example 83, (R)-3-(2-(2-(3-(2-benzylpiperazin-1-yl)-3-oxopropyl)phenoxy)phenyl)propanamide]
21 | 0.5 to 5 | O=C(C(Cc1ccccc1)c1ccccc1)N1CCNC[C@H]1Cc1ccccc1 (stereo partly drawn) [Example 6, 1-((R)-2-Benzylpiperazin-1-yl)-2,3-diphenylpropan-1-one]
22 | < 0.5 | CC(=O)NCCc1ccccc1Oc1ccccc1CCC(=O)N1CCNC[C@H]1Cc1ccc(O)cc1 [Example 79, (R)—N-(2-(2-(3-(2-(4-hydroxybenzyl)piperazin-1-yl)-3-oxopropyl)phenoxy)phenethyl)acetamide]
23 | 0.5 to 5 | COC(=O)COc1ccc(C[C@@H]2CNCCN2C(=O)CCc2ccccc2Oc2ccccc2)cc1 [Example 69, (R)-methyl 2-(4-((1-(3-(2-phenoxyphenyl)propanoyl)piperazin-2-yl)methyl)phenoxy)acetate]
24 | < 0.5 | O=C(CCc1ccccc1Oc1ccccc1CO)N1CCNC[C@H]1Cc1ccccc1 [Example 87, (R)-1-(2-benzylpiperazin-1-yl)-3-(2-(2-(hydroxymethyl)phenoxy)phenyl)propan-1-one]
25 | < 0.5 | CC(=O)NCCc1cc(C)ccc1Oc1cc(C)ccc1CCC(=O)N1CCNC[C@H]1Cc1ccccc1 [Example 27]
26 | < 0.5 | O=C(CCc1ccccc1Cc1ccc(Cl)cc1)N1CCNC[C@H]1Cc1ccccc1 [Example 56, (R)-1-(2-benzylpiperazin-1-yl)-3-(2-(4-chlorobenzyl)phenyl)propan-1-one]
27 | < 0.5 | O=C(CCc1ccccc1Oc1ccccc1)N1CCNC[C@H]1Cc1ccc(OCc2nnn[nH]2)cc1 [Example 85, (R)-1-(2-(4-((1H-tetrazol-5-yl)methoxy)benzyl)piperazin-1-yl)-3-(2-phenoxyphenyl)propan-1-one]
28 | < 0.5 | CCC(=O)NCCc1ccccc1Oc1ccccc1CCC(=O)N1CCNC[C@H]1Cc1ccccc1 [Example 78, (R)—N-(2-(2-(3-(2-benzylpiperazin-1-yl)-3-oxopropyl)phenoxy)phenethyl)propionamide]
29 | < 0.5 | CC(=O)NCCc1ccccc1Oc1cc(C)ccc1CCC(=O)N1CCNC[C@H]1Cc1ccccc1 [Example 28, (R)—N-(2-(2-(3-(2-Benzylpiperazin-1-yl)-3-oxopropyl)-5-methylphenoxy)phenethyl)acetamide]
30 | < 0.5 | NC(=O)COc1ccc(C[C@@H]2CNCCN2C(=O)CCc2ccccc2Oc2ccccc2)cc1 [Example 70, (R)-2-(4-((1-(3-(2-phenoxyphenyl)propanoyl)piperazin-2-yl)methyl)phenoxy)acetamide]
